Assays:
[1] = xn = mol fraction of the nth substance listed; details: Liquid, Vibrating tube method
[2] = molar heat capacity at constant pressure; xn = mol fraction of the nth substance listed; details: Liquid, Small sample (50 mg) DSC

C[n+]1ccn(CCO)c1.[Cl-] [1-(2-hydroxyethyl)-3-methyl-1H-imidazolium chloride] + O
Details	mass density, x1 = 0.0122 [kg/m3]	mass density, x1 = 0.0453 [kg/m3]	mass density, x1 = 0.0997 [kg/m3]	mass density, x1 = 0.2054 [kg/m3]	mass density, x1 = 0.3071 [kg/m3]	molar heat capacity at constant pressure, x1 = 0.0122 [J/K/mol]	molar heat capacity at constant pressure, x1 = 0.0453 [J/K/mol]	molar heat capacity at constant pressure, x1 = 0.0997 [J/K/mol]	molar heat capacity at constant pressure, x1 = 0.2054 [J/K/mol]	molar heat capacity at constant pressure, x1 = 0.3071 [J/K/mol]
[1], 298.15 K	1016.85	1059.73	1107.52	1136.95	1187.93	–	–	–	–	–
[1], 303.15 K	1015.23	1057.69	1105.14	1134.43	1185.25	–	–	–	–	–
[1], 308.15 K	1013.43	1055.55	1102.71	1131.88	1182.56	–	–	–	–	–
[1], 313.15 K	1011.46	1053.3	1100.22	1129.28	1179.87	–	–	–	–	–
[1], 318.15 K	1009.27	1050.94	1097.68	1126.66	1177.16	–	–	–	–	–
[1], 323.15 K	1005.9	1048.46	1095.08	1123.99	1174.45	–	–	–	–	–
[2], 298.15 K	–	–	–	–	–	75.34	79.99	88.41	107.22	124.59
[2], 303.15 K	–	–	–	–	–	75.7	80.58	89.25	108.22	125.97
[2], 308.15 K	–	–	–	–	–	76.07	81.14	90.1	109.32	127.4
[2], 313.15 K	–	–	–	–	–	76.41	81.68	90.91	110.27	128.97
[2], 318.15 K	–	–	–	–	–	76.86	82.39	91.91	111.66	130.65
[2], 323.15 K	–	–	–	–	–	77.24	83.01	92.79	112.94	132.15
[2], 328.15 K	–	–	–	–	–	77.61	83.57	93.66	114.19	133.71
[2], 333.15 K	–	–	–	–	–	77.97	84.16	94.54	115.52	135.39
[2], 338.15 K	–	–	–	–	–	78.39	84.85	95.51	117	137.33
[2], 343.15 K	–	–	–	–	–	78.9	85.64	96.65	118.67	139.45
[2], 348.15 K	–	–	–	–	–	79.24	86.2	97.49	120.06	141.39
[2], 353.15 K	–	–	–	–	–	79.67	86.89	98.46	121.68	143.57

From the NIST ThermoML archive (doi:10.1021/je3007953)
